Target: HDM2 (truncated, residues 17 to 125, containing p53 binding surface) (Homo sapiens (Human), UniProt Q00987)
Experiment: HDM2 FRET assay (inhibition of binding of FITC labeled p53-site peptide to HDM2)
Details: Table 16
Source text: IC50 DETERMINATIONS: Dose-response curves were plotted from the inhibition data, from 10 point serial dilutions of inhibitory compounds. Concentration of compound was plotted against em520/Cem495 ratio signal. To generate IC50 values, the dose-response curves were fitted to a standard sigmoidal curve and IC50 values were derived by nonlinear regression analysis.

Sequence of HDM2 (truncated, residues 17 to 125, containing p53 binding surface) (Q00987 17-125): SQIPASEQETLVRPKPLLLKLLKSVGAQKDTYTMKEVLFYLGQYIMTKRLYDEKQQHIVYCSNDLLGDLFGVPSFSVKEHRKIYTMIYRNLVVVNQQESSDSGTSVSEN

SMILES	IC50
COC(C)(C)C1CCCN1c1nc2nc(-c3noc(=O)[nH]3)nc(-c3cncc(Cl)c3)c2n1C[C@H]1CC[C@H](C)CC1 (single isomer, unassigned) [Example 16.72, 3-{6-(5-chloropyridin-3-yl)-8-[2-(1-methoxy-1-methylethyl)pyrrolidin-1-yl]-7-[(trans-4-methylcyclohexyl)methyl]-7H-purin-2-yl}-1,2,4-oxadiazol-5(4H)-one]	0.985 nM
COCCOc1cc(Cl)cc(-c2nc(-c3noc(=O)[nH]3)nc3nc(N4CCO[C@@H]5CCC[C@H]54)n(C[C@H]4CC[C@H](C)CC4)c23)c1 (racemic) [Example 16.160, 3-{6-[3-chloro-5-(2-methoxyethoxyl)phenyl]-8-[(trans)-hexahydrocyclopenta[b][1,4]oxazin-4(4aH)-yl]-7-[(trans-4-methylcyclohexyl)methyl]-7H-purin-2-yl}-1,2,4-oxadiazol-5(4H)-one]	21 nM
C[C@H]1CC[C@H](Cn2c(N3CCOC4CCCCC43)nc3nc(-c4noc(=O)[nH]4)nc(-c4cncc(Cl)c4)c32)CC1 (single isomer, unassigned) [Example 16.51, 3-[6-(5-chloropyridin-3-yl)-7-[(trans-4-methylcyclohexyl)methyl]-8-(octahydro-4H-1,4-benzoxazin-4-yl)-7H-purin-2-yl]-1,2,4-oxadiazol-5(4H)-one]	30.2 nM

Same assay, conditions: Table 18

SMILES	IC50
CC([C@H]1CC[C@H](C)CC1)n1c(N2CCOC3CCCC32)nc2nc(-c3n[nH]c(=O)o3)nc(-c3cccc(Cl)c3)c21 (single isomer, unassigned) [Example 18.43, 5-{6-(3-chlorophenyl)-8-(hexahydrocyclopenta[b][1,4]oxazin-4(4aH)-yl)-7-[1-(trans-4-methylcyclohexyl)ethyl]-7H-purin-2-yl}-1,3,4-oxadiazol-2(3H)-one]	14 nM

Same assay, conditions: Table 23

SMILES	IC50
CC(F)(c1ncccc1F)c1nc2nc(-c3noc(=O)[nH]3)nc(-c3cncc(Cl)c3)c2n1C[C@H]1CC[C@H](C)CC1 (single isomer, unassigned) [Example 23.99, 3-{6-(5-chloropyridin-3-yl)-8-[1-fluoro-1-(3-fluoropyridin-2-yl)ethyl]-7-[(trans-4-methylcyclohexyl)methyl]-7H-purin-2-yl}-1,2,4-oxadiazol-5(4H)-one]	0.315 nM
CC(c1ccccc1F)c1nc2nc(-c3noc(=O)[nH]3)nc(-c3cncc(Cl)c3)c2n1C[C@H]1CC[C@H](C)CC1 (mixture of isomers) [Example 23.113, 3-{6-(5-chloropyridin-3-yl)-8-[1-(2-fluorophenyl)ethyl]-7-[(trans-4-methylcyclohexyl)methyl]-7H-purin-2-yl}-1,2,4-oxadiazol-5(4H)-one]	1.39 nM
CC(F)(c1ccccn1)c1nc2nc(-c3n[nH]c(=O)o3)nc(-c3cccc(Cl)c3)c2n1C[C@H]1CC[C@H](C)CC1 (single isomer, unassigned) [Example 23.37, 5-{6-(3-chlorophenyl)-8-[1-fluoro-1-(pyridin-2-yl)ethyl]-7-[{trans-4-methylcyclohexyl)methyl]-7H-purin-2-yl}-1,3,4-oxadiazol-2(3H)-one]	9.65 nM
CC(F)(c1ncccc1F)c1nc2nc(-c3n[nH]c(=O)o3)nc(-c3cncc(Cl)c3)c2n1C[C@H]1CC[C@H](C)CC1 (single isomer, unassigned) [Example 23.84, 5-{6-(5-chloropyridin-3-yl)-8-[1-fluoro-1-(3-fluoropyridin-2-yl)ethyl]-7-[(trans-4-methylcyclohexyl)methyl]-7H-purin-2-yl}-1,3,4-oxadiazol-2(3H)-one]	16.5 nM
COCC(C)(F)c1nc2nc(-c3n[nH]c(=O)o3)nc(-c3cncc(Cl)c3)c2n1C[C@H]1CC[C@H](C)CC1 (mixture of isomers) [Example 23.106, 5-{6-(5-chloropyridin-3-yl)-8-(1-fluoro-2-methoxy-1-methylethyl)-7-[(trans-4-methylcyclohexyl)methyl]-7H-purin-2-yl}-1,3,4-oxadiazol-2(3H)-one]	3.93 nM
CC1CCCCC1(F)c1nc2nc(-c3n[nH]c(=O)o3)nc(-c3cncc(Cl)c3)c2n1C[C@H]1CC[C@H](C)CC1 (single isomer, unassigned) [Example 23.82, 5-{6-(5-chloropyridin-3-yl)-8-(1-fluoro-2-methylcyclohexyl)-7-[(trans-4-methylcyclohexyl)methyl]-7H-purin-2-yl}-1,3,4-oxadiazol-2(3H)-one]	7.63 nM
COC(c1nc2nc(-c3n[nH]c(=O)o3)nc(-c3cccc(Cl)c3)c2n1C[C@H]1CC[C@H](C)CC1)C1CCCCC1 (mixture of isomers) [Example 23.15, 5-{6-(3-chlorophenyl)-8-[cyclohexyl(methoxy)methyl]-7-[(trans-4-methylcyclohexyl)methyl]-7H-purin-2-yl}-1,3,4-oxadiazol-2(3H)-one]	23 nM
COc1ccccc1C(C)(F)c1nc2nc(-c3noc(=O)[nH]3)nc(-c3cncc(Cl)c3)c2n1C[C@H]1CC[C@H](C)CC1 (single isomer, unassigned) [Example 23.27, 3-{6-(5-chloropyridin-3-yl)-8-[1-fluoro-1-(2-methoxyphenyl)ethyl]-7-[(trans-4-methylcyclohexyl)methyl]-7H-purin-2-yl}-1,2,4-oxadiazol-5(4H)-one]	1.62 nM
COC(C)(c1cccc(Cl)c1F)c1nc2nc(-c3n[nH]c(=O)o3)nc(-c3cncc(Cl)c3)c2n1C[C@H]1CC[C@H](C)CC1 (single isomer, unassigned) [Example 23.73, 5-{8-[1-(3-chloro-2-fluorophenyl)-1-methoxyethyl]-6-(5-chloropyridin-3-yl)-7-[(trans-4-methylcyclohexyl)methyl]-7H-purin-2-yl}-1,3,4-oxadiazol-2(3H)-one]	0.623 nM
COC(c1nc2nc(-c3n[nH]c(=O)o3)nc(-c3cncc(Cl)c3)c2n1C[C@H]1CC[C@H](C)CC1)C1CCCC1 (mixture of isomers) [Example 23.23, 5-{6-(5-chloropyridin-3-yl)-8-[cyclopentyl(methoxy)methyl]-7-[(trans-4-methylcyclohexyl)methyl]-7H-purin-2-yl}-1,3,4-oxadiazol-2(3H)-one]	8.78 nM
COC(C)(c1ncoc1C)c1nc2nc(-c3noc(=O)[nH]3)nc(-c3cccc(Cl)c3)c2n1C[C@H]1CC[C@H](C)CC1 (mixture of isomers) [Example 23.57, 3-{6-(3-chlorophenyl)-8-[1-methoxy-1-(5-methyl-1,3-oxazol-4-yl)ethyl]-7-[(trans-4-methylcyclohexyl)methyl]-7H-purin-2-yl}-1,2,4-oxadiazol-5(4H)-one]	2.07 nM
CC(c1c(F)cccc1F)c1nc2nc(-c3noc(=O)[nH]3)nc(-c3cncc(Cl)c3)c2n1C[C@H]1CC[C@H](C)CC1 (mixture of isomers) [Example 23.115, 3-{6-(5-chloropyridin-3-yl)-8-[1-(2,6-difluorophenyl)ethyl]-7-[(trans-4-methylcyclohexyl)methyl]-7H-purin-2-yl}-1,2,4-oxadiazol-5(4H)-one]	2.23 nM
CC1CCCCC1(F)c1nc2nc(-c3n[nH]c(=O)o3)nc(-c3cncc(Cl)c3)c2n1C[C@H]1CC[C@H](C)CC1 (single isomer, unassigned) [Example 23.83, 5-{6-(5-chloropyridin-3-yl)-8-(1-fluoro-2-methylcyclohexyl)-7-[(trans-4-methylcyclohexyl)methyl]-7H-purin-2-yl}-1,3,4-oxadiazol-2(3H)-one]	6.31 nM

— patent publication US9540377B2, “2,6,7,8 substituted purines as HDM2 inhibitors” (Merck Sharp & Dohme Corp., priority 2013, dated 2017)
